Tested on: SARS-CoV-2
Assay: Pirfenidone and nintedanib therapy during post-acute phase in patients with severe SARS2 lung damage (Example 3)
Assay type: in vivo, human
Conditions: one patient
Description: Pirfenidone and Nintedanib therapy during the post-acute phase mitigates functional and structural lung loss, preserves lung function and structure, and can improve lung capacity and exertional tolerance in patients previously infected SARS2 with significant pulmonary functional and structural loss as a result of their severe infections. This transition period can be determined in any number of ways including but not limited to laboratory, blood serum, urine, fecal, sputum, bronchial lavage, imaging, genomic or tissue-based testing. These patients can also be characterized in one embodiment as those patients with prolonged hospitalization due to lung disease, prolonged ventilation, course of ECMO, high peaks during hospitalization 1.5 times above the upper of normal for LDH, or Ferritin, or CRP, >30% loss in pulmonary capacity or pulmonary reserve, significant scarring and/or fibrosis seen by CT imaging, MRI, PET imaging or chest x-ray, significant reductions in physiological and functional measures as assessed by the objective physiologic and functional assessments described above, and/or a progressive or worsening pattern of any of such measures over time. During this period, pharmacologic agents and combinations as disclosed herein can be administered to limit, contain, or restrain or reduce such damage and limit the progression of severe SARS2 associated lung damage as described above both physiologically functionally and structurally. A patient with severe clinical COVID symptoms and severe lung damage, and >40% loss of pulmonary reserve by objective testing was treated with pirfenidone starting 1 month after discharge. […] A similar patient was treated with a 50% loss of pulmonary reserve.

[1] = severe COVID, >40% loss of pulmonary reserve, treatment from 1 month after discharge, at 3 months

Structure (SMILES) | structural and physiologic declines (50% loss of pulmonary reserve, initiated two months post-discharge, at 4 months) | PFTs [1] | progression of structural lung damage by high-resolution CT (HRCT) imaging [1]
COC(=O)c1ccc2c(c1)NC(=O)/C2=C(\Nc1ccc(N(C)C(=O)CN2CCN(C)CC2)cc1)c1ccccc1 [nintedanib] | stabilized and arrested | – | –
Cc1ccc(=O)n(-c2ccccc2)c1 [pirfenidone] | – | improvement | reduction in progression
